Data on three compounds can be found in article PMC2655291 (BMC Structural Biology, 2009).

Read-outs that look alike come from different tables or passages of the source.

The target in test [1] is T1, quinone reductase 2 (NQO2) (Homo sapiens, UniProt P16083).
T1 sequence (P16083 1-231): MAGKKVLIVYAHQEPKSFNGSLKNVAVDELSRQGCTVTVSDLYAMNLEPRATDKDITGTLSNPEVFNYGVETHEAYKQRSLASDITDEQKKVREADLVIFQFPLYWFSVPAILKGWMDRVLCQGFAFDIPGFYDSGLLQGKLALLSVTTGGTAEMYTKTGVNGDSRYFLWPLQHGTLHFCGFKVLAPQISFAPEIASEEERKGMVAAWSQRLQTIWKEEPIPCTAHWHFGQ

The target of test [2] is T1, quinone reductase 2 (NQO2). The source holds these as a separate data set.
In another test the target is NQO2 S16D mutant (human). The test can be described thus: SEC; analytical gel filtration of the purified mutant (data not shown); monomer and dimer.

Turning to `Cc1cn(-c2cc(NC(=O)c3ccc(C)c(Nc4nccc(-c5cccnc5)n4)c3)cc(C(F)(F)F)c2)cn1` [nilotinib], the IC50 (usually the concentration at which inhibition is half-maximal) in test [1] was 381 nM.
With `O=c1c(O)c(-c2ccc(O)c(O)c2)oc2cc(O)cc(O)c12` [quercetin], the IC50 in test [2] came to 42 nM.
With NQO2 S16D mutant (enzyme), in the test with NQO2 S16D mutant (human), the stoichiometry N (usually the number of molecules, sites or subunits per partner or assembly) was found to be 2.
